Assay results reported in patent US20230341404A1, “TARGETING STROMA-CANCER INTERACTIONS IN CANCER” (The Regents of the University of California, priority 2022, published 2023).

Legend:
KPC cells [1] = assay: macropinocytosis and mitochondria in KPC cells on ECM from Ilomastat-treated fibroblasts; type: cell-based, mouse; settings: ECM from Ilomastat-treated wild-type fibroblasts, LG medium, 24 h
Procedure: FIGS. 12A-12M: Inhibition of Col I cleavage shuts down NRF2-driven macropinocytosis and mitochondrial biogenesis. FIG. 12A, MP and mitochondria in KPC cells plated on indicated ECM and incubated in LG for 24 h. Col IIB in indicated ECM preparations is shown on the right. FIG. 12B, IB of indicated proteins in above cells. FIG. 12C, MP and mitochondria in indicated KPC cells plated on R/R Col I^Δ ECM and incubated in LG for 24 h. FIG. 12D, LB of indicated proteins in 1305 cells plated on ECM produced by bacterial collagenase (CLG, 50 μg/ml) treated or untreated fibroblasts and incubated in LG medium −/+CLG for 24 h. FIG. 12E, Genes differentially expressed between KPC cells plated on indicated ECM. Light gray: replicates with low expression (z-score=−2); dark gray: replicates with high expression (z-score=+2). […] Quantitation on the right. […] Statistical significance determined by two-tailed t-test. ***P<0.001, ****P<0.0001. […]
Cells were cultured on coverslips coated with or without ECM and fixed in 4% paraformaldehyde for 10 min at room temperature or methanol for 10 min at —20° C. […] Images were captured and analysed using a TCS SPE Leica confocal microscope with Leica Application Suite AF 2.6.0.7266 software (Leica).
Macropinosomes or mitochondria were quantified by using the ‘Analyze Particles’ feature in Image J (NIH). […] Kaplan—Meier survival curves were analysed by log-rank test. […]

KPC cells [2] = assay: cell viability with tigecycline; type: cell-based, mouse; settings: parental cells on wild-type ECM versus R/R ECM or DDR1^KD cells on wild-type ECM, LG medium
Procedure: (§1) FIGS. 14A-14J: Effect of macropinocytosis and mitochondria on Col I-controlled PDAC cell growth. FIG. 14A, Bromodeoxyuridine (BrdU) incorporation into KPC cells plated on ECM mixtures produced by R/R and WT fibroblasts (R:W). Scale bars, 10 μm. FIG. 14B, FIG. 14C, Paren. and IKKα^KD KPC (FIG. 14B) or KC (FIG. 14C) cells were plated −/+ WT or R/R ECM and incubated in LG −/+ indicated reagents. Viable cells were measured after 3 days and depicted relative to untreated plastic-plated Paren. cells. (FIG. 14C). IKKα KD efficiency is shown on the right (FIG. 14B). […] Total viable cells were measured as above and are presented relative to the untreated cells. FIG. 14H, Mitochondrial ATP production calculated from FIG. 6B. […] Quantification of the SR positive area is shown on the left. […] Statistical significance determined by two-tailed t-test. […]
(§2) Cells were plated in 96-well plates coated with or without ECM at a density of 3,000 cells (MIA, 1305) or 1,500 cells (KPC or KC) per well and incubated overnight before treatment. […] Cell viability was determined with a Cell Counting Kit-8 assay (Glpbio). Optical density was read at 450 nm and analysed using a microplate reader with SoftMax 6.5 software (FilterMax F5, Molecular Devices). […]

1305 cells = assay: cell viability with tigecycline; type: cell-based, human; settings: parental cells on wild-type ECM versus R/R ECM or DDR1^KD cells on wild-type ECM, LG medium, 24 h
Procedure: as §1, §2

Row | SMILES | behaviour of ECM from treated fibroblasts (macropinocytosis, mitochondria) (KPC cells [1]) | sensitivity to tigecycline (viable cells) (KPC cells [2]) | sensitivity to tigecycline (viable cells) (1305 cells)
1 | CNC(=O)[C@H](Cc1c[nH]c2ccccc12)NC(=O)[C@@H](CC(=O)NO)CC(C)C [Ilomastat] | behaved like R/R ECM | – | –
2 | CN(C)c1cc(NC(=O)CNC(C)(C)C)c(O)c2c1C[C@H]1C[C@H]3[C@H](N(C)C)C(O)=C(C(N)=O)C(=O)[C@@]3(O)C(O)=C1C2=O [tigecycline] | – | more sensitive | more sensitive
